Results: PubChem BioAssay (NCI)
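Five concentrations, 48 hours, 96-well plates. TGI is the concentration that stops growth completely.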

Legend:
Assay in all cases: NCI tumour cell line growth inhibition, 48 h
MOLT-4 leukemia = test system: MOLT-4 leukemia
UO-31 renal = test system: UO-31 renal
NCI/ADR-RES ovarian = test system: NCI/ADR-RES ovarian
HT29 colon = test system: HT29 colon
HCC-2998 colon = test system: HCC-2998 colon
KM12 colon = test system: KM12 colon
A549 NSCLC = test system: A549 NSCLC
SF-539 CNS = test system: SF-539 CNS
OVCAR-5 ovarian = test system: OVCAR-5 ovarian
NCI-H23 lung = test system: NCI-H23 lung
SK-MEL-2 melanoma = test system: SK-MEL-2 melanoma
SN12C renal = test system: SN12C renal
786-0 renal = test system: 786-0 renal
SK-MEL-28 melanoma = test system: SK-MEL-28 melanoma
DU-145 prostate = test system: DU-145 prostate
HCT-116 colon = test system: HCT-116 colon
OVCAR-3 ovarian = test system: OVCAR-3 ovarian
RPMI-8226 leukemia = test system: RPMI-8226 leukemia
MDA-N = test system: MDA-N
NCI-H460 lung = test system: NCI-H460 lung
PC-3 prostate = test system: PC-3 prostate
SK-OV-3 ovarian = test system: SK-OV-3 ovarian
BT-549 breast = test system: BT-549 breast
RXF 393 renal = test system: RXF 393 renal
ACHN renal = test system: ACHN renal
HOP-92 NSCLC = test system: HOP-92 NSCLC
HCT-15 colon = test system: HCT-15 colon
SW-620 colon = test system: SW-620 colon
SK-MEL-5 melanoma = test system: SK-MEL-5 melanoma
SR leukemia = test system: SR leukemia
SF-268 CNS = test system: SF-268 CNS
M14 melanoma = test system: M14 melanoma
NCI-H522 lung = test system: NCI-H522 lung
SF-295 CNS = test system: SF-295 CNS
UACC-62 melanoma = test system: UACC-62 melanoma
SNB-19 CNS = test system: SNB-19 CNS
K-562 leukemia = test system: K-562 leukemia
COLO 205 colon = test system: COLO 205 colon
CAKI-1 renal = test system: CAKI-1 renal
EKVX NSCLC = test system: EKVX NSCLC
MCF7 breast = test system: MCF7 breast
HL-60(TB) leukemia = test system: HL-60(TB) leukemia
UACC-257 melanoma = test system: UACC-257 melanoma
U251 CNS = test system: U251 CNS
OVCAR-4 ovarian = test system: OVCAR-4 ovarian
NCI-H226 lung = test system: NCI-H226 lung
TK-10 renal = test system: TK-10 renal
OVCAR-8 ovarian = test system: OVCAR-8 ovarian
CCRF-CEM leukemia = test system: CCRF-CEM leukemia
IGROV1 ovarian = test system: IGROV1 ovarian
SNB-75 CNS = test system: SNB-75 CNS
MALME-3M melanoma = test system: MALME-3M melanoma
A498 renal = test system: A498 renal
HOP-62 NSCLC = test system: HOP-62 NSCLC
T-47D breast = test system: T-47D breast
LOX IMVI melanoma = test system: LOX IMVI melanoma
MDA-MB-231 breast = test system: MDA-MB-231 breast
MDA-MB-435 = test system: MDA-MB-435
HS 578T breast = test system: HS 578T breast

## Cc1cccc2c1nc1n2C(=O)c2ccccc2-1
MOLT-4 leukemia
  TGI: > 100 µM
UO-31 renal
  TGI: > 100 µM
NCI/ADR-RES ovarian
  TGI: > 100 µM
HT29 colon
  TGI: > 100 µM
HCC-2998 colon
  TGI: > 100 µM
KM12 colon
  TGI: > 100 µM
A549 NSCLC
  TGI: > 100 µM
SF-539 CNS
  TGI: > 100 µM
OVCAR-5 ovarian
  TGI: > 100 µM
NCI-H23 lung
  TGI: > 100 µM
SK-MEL-2 melanoma
  TGI: > 100 µM
SN12C renal
  TGI: > 100 µM
786-0 renal
  TGI: > 100 µM
SK-MEL-28 melanoma
  TGI: > 100 µM
DU-145 prostate
  TGI: > 100 µM
HCT-116 colon
  TGI: > 100 µM
OVCAR-3 ovarian
  TGI: > 100 µM
RPMI-8226 leukemia
  TGI: > 100 µM
MDA-N
  TGI: > 100 µM
NCI-H460 lung
  TGI: > 100 µM
PC-3 prostate
  TGI: > 100 µM
SK-OV-3 ovarian
  TGI: > 100 µM
BT-549 breast
  TGI: > 100 µM
RXF 393 renal
  TGI: > 100 µM
ACHN renal
  TGI: > 100 µM
HOP-92 NSCLC
  TGI: > 100 µM
HCT-15 colon
  TGI: > 100 µM
SW-620 colon
  TGI: > 100 µM
SK-MEL-5 melanoma
  TGI: > 100 µM
SR leukemia
  TGI: > 100 µM
SF-268 CNS
  TGI: > 100 µM
M14 melanoma
  TGI: > 100 µM
NCI-H522 lung
  TGI: > 100 µM
SF-295 CNS
  TGI: > 100 µM
UACC-62 melanoma
  TGI: > 100 µM
SNB-19 CNS
  TGI: > 100 µM
K-562 leukemia
  TGI: > 100 µM
COLO 205 colon
  TGI: > 100 µM
CAKI-1 renal
  TGI: > 100 µM
EKVX NSCLC
  TGI: > 100 µM
MCF7 breast
  TGI: > 100 µM
HL-60(TB) leukemia
  TGI: > 100 µM
UACC-257 melanoma
  TGI: > 100 µM
U251 CNS
  TGI: > 100 µM
OVCAR-4 ovarian
  TGI: > 100 µM
NCI-H226 lung
  TGI: > 100 µM
TK-10 renal
  TGI: > 100 µM
OVCAR-8 ovarian
  TGI: > 100 µM
CCRF-CEM leukemia
  TGI: > 100 µM
IGROV1 ovarian
  TGI: > 100 µM
SNB-75 CNS
  TGI: > 100 µM
MALME-3M melanoma
  TGI: > 100 µM

## COC(=O)Nc1cc(OCCCOC(C)=O)c2[nH]c(C(=O)OC)cc2c1C[C@H](O)CO
MOLT-4 leukemia
  TGI: > 100 µM
UO-31 renal
  TGI: > 100 µM
NCI/ADR-RES ovarian
  TGI: > 100 µM
A498 renal
  TGI: > 100 µM
HOP-62 NSCLC
  TGI: > 100 µM
HT29 colon
  TGI: > 100 µM
HCC-2998 colon
  TGI: > 100 µM
KM12 colon
  TGI: > 100 µM
A549 NSCLC
  TGI: > 100 µM
SF-539 CNS
  TGI: > 100 µM
OVCAR-5 ovarian
  TGI: > 100 µM
NCI-H23 lung
  TGI: > 100 µM
SK-MEL-2 melanoma
  TGI: > 100 µM
SN12C renal
  TGI: > 100 µM
786-0 renal
  TGI: > 100 µM
SK-MEL-28 melanoma
  TGI: > 100 µM
T-47D breast
  TGI: > 100 µM
DU-145 prostate
  TGI: > 100 µM
HCT-116 colon
  TGI: > 100 µM
OVCAR-3 ovarian
  TGI: > 100 µM
RPMI-8226 leukemia
  TGI: > 100 µM
MDA-N
  TGI: > 100 µM
PC-3 prostate
  TGI: > 100 µM
LOX IMVI melanoma
  TGI: > 100 µM
SK-OV-3 ovarian
  TGI: > 100 µM
BT-549 breast
  TGI: > 100 µM
ACHN renal
  TGI: > 100 µM
HOP-92 NSCLC
  TGI: > 100 µM
HCT-15 colon
  TGI: > 100 µM
SW-620 colon
  TGI: > 100 µM
SK-MEL-5 melanoma
  TGI: > 100 µM
SR leukemia
  TGI: > 100 µM
M14 melanoma
  TGI: > 100 µM
NCI-H522 lung
  TGI: 26.9 µM
MDA-MB-231 breast
  TGI: > 100 µM
SF-295 CNS
  TGI: > 100 µM
UACC-62 melanoma
  TGI: > 100 µM
SNB-19 CNS
  TGI: > 100 µM
COLO 205 colon
  TGI: > 100 µM
CAKI-1 renal
  TGI: > 100 µM
EKVX NSCLC
  TGI: > 100 µM
MCF7 breast
  TGI: > 100 µM
HL-60(TB) leukemia
  TGI: > 100 µM
UACC-257 melanoma
  TGI: > 100 µM
U251 CNS
  TGI: > 100 µM
MDA-MB-435
  TGI: > 100 µM
OVCAR-4 ovarian
  TGI: > 100 µM
NCI-H226 lung
  TGI: > 100 µM
TK-10 renal
  TGI: > 100 µM
OVCAR-8 ovarian
  TGI: > 100 µM
CCRF-CEM leukemia
  TGI: > 100 µM
IGROV1 ovarian
  TGI: > 100 µM

## C/C(=N/NC(=S)Nc1ccc(C)cc1)c1ccccn1
MOLT-4 leukemia
  TGI: 2.53 µM
UO-31 renal
  TGI: 12.6 µM
NCI/ADR-RES ovarian
  TGI: 1.34 µM
A498 renal
  TGI: 15.9 µM
HOP-62 NSCLC
  TGI: 5.55 µM
HT29 colon
  TGI: 19.4 µM
HCC-2998 colon
  TGI: 18.6 µM
KM12 colon
  TGI: 15.5 µM
A549 NSCLC
  TGI: 14 µM
SF-539 CNS
  TGI: 7.41 µM
OVCAR-5 ovarian
  TGI: 9.55 µM
NCI-H23 lung
  TGI: 16.1 µM
SK-MEL-2 melanoma
  TGI: 13.9 µM
SN12C renal
  TGI: 7.65 µM
786-0 renal
  TGI: 12.7 µM
SK-MEL-28 melanoma
  TGI: 24.3 µM
DU-145 prostate
  TGI: 10.4 µM
HCT-116 colon
  TGI: 13 µM
OVCAR-3 ovarian
  TGI: 12.2 µM
RPMI-8226 leukemia
  TGI: 25.7 µM
MDA-N
  TGI: 13.8 µM
NCI-H460 lung
  TGI: 7.95 µM
PC-3 prostate
  TGI: 13.7 µM
LOX IMVI melanoma
  TGI: 20.8 µM
SK-OV-3 ovarian
  TGI: 17 µM
BT-549 breast
  TGI: 18.7 µM
RXF 393 renal
  TGI: 11 µM
HS 578T breast
  TGI: 17 µM
ACHN renal
  TGI: 11.9 µM
HOP-92 NSCLC
  TGI: 12.5 µM
HCT-15 colon
  TGI: 17.6 µM
SW-620 colon
  TGI: 18.6 µM
SK-MEL-5 melanoma
  TGI: 2.29 µM
SF-268 CNS
  TGI: 16.4 µM
M14 melanoma
  TGI: 2.37 µM
NCI-H522 lung
  TGI: 12 µM
MDA-MB-231 breast
  TGI: 18.7 µM
SF-295 CNS
  TGI: 11.8 µM
UACC-62 melanoma
  TGI: 2.64 µM
SNB-19 CNS
  TGI: 20.6 µM
K-562 leukemia
  TGI: 6.09 µM
COLO 205 colon
  TGI: 1.95 µM
CAKI-1 renal
  TGI: 13.9 µM
EKVX NSCLC
  TGI: 5.12 µM
MCF7 breast
  TGI: 16.6 µM
HL-60(TB) leukemia
  TGI: 0.608 µM
UACC-257 melanoma
  TGI: 0.802 µM
U251 CNS
  TGI: 14.8 µM
MDA-MB-435
  TGI: 15 µM
OVCAR-4 ovarian
  TGI: 17.2 µM
NCI-H226 lung
  TGI: 2.6 µM
TK-10 renal
  TGI: 6.77 µM
OVCAR-8 ovarian
  TGI: 7.51 µM
CCRF-CEM leukemia
  TGI: 4.64 µM
IGROV1 ovarian
  TGI: 13.6 µM
SNB-75 CNS
  TGI: 17.2 µM
MALME-3M melanoma
  TGI: 8.71 µM
